The values that follow come from patent publication US20220348565A1, “PHARMACEUTICAL COMPOUNDS” (SENTINEL ONCOLOGY LIMITED, priority 2019, published 2022).

Each structure is given as a SMILES string.

Experiment in all cases: DiscoverX KinomeScreen kinase selectivity competition binding assay
Test [1] concerns the target T1, panel of ninety-seven kinases (Homo sapiens, UniProt O14757).
T1 construct: purchased DiscoverX; host or cells: T7 phage in E. coli (BL21-derived) for most kinases; HEK-293 for the rest
As to conditions: CHEK1; read-out: % Ctrl @ 3 μM. As for the experimental part: (§1) Atropisomer A-2 has been tested for off-target activity against a panel of ninety-seven kinases distributed across the kinome at a concentration of 3 μM using the DiscoverX KinomeScreen assay. The DiscoverX KinomeScreen assay is a site-directed competition binding assay which measures the binding affinity of a compound to a kinase, by use of a solid supported control compound which can bind or capture the kinases in solution. In the absence of a kinase-inhibitor test compound, all of the kinase will bind to the solid support. If a kinase-inhibitor test compound is added to the assay mix, the amount of kinase binding to the solid support will be reduced, the extent of reduction being dependent on the potency of the test compound as a kinase inhibitor. […] For most assays, kinase-tagged T7 phage strains were grown in parallel in 24-well blocks in an E. coli host derived from the BL21 strain. E. coli were grown to log-phase and infected with T7 phage from a frozen stock (multiplicity of infection=0.4) and incubated with shaking at 32° C. until lysis (90-150 minutes). The lysates were centrifuged (6,000×g) and filtered (0.2 μm) to remove cell debris. The remaining kinases were produced in HEK-293 cells and subsequently tagged with DNA for qPCR detection. Streptavidin-coated magnetic beads were treated with biotinylated small molecule ligands for 30 minutes at room temperature to generate affinity resins for kinase assays. The liganded beads were blocked with excess biotin and washed with blocking buffer (SeaBlock (Pierce), 1% BSA, 0.05% Tween 20, 1 mM DTT) to remove unbound ligand and to reduce non-specific phage binding. […] Test compounds were prepared as 40× stocks in 100% DMSO and directly diluted into the assay. All reactions were performed in polypropylene 384-well plates in a final volume of 0.02 ml. […] The beads were then re-suspended in elution buffer (1×PBS, 0.05% Tween 20, 0.5 μM non-biotinylated affinity ligand) and incubated at room temperature with shaking for 30 minutes. The kinase concentration in the eluates was measured by qPCR. Compounds that bind the kinase active site and directly (sterically) or indirectly (allosterically) prevent kinase binding to the immobilized ligand, will reduce the amount of kinase captured on the solid support. […] The strength of binding of the test molecule to the kinase can be expressed as the percent control (% Ctrl) The compound(s) were screened at 3000 nM concentration, and results for primary screen binding interactions are reported as ‘% Ctrl’, where lower numbers indicate stronger hits in the matrix on the following page(s). [formula] • negative control=DMSO (100% Ctrl) • positive control=control compound (0% Ctrl)

Test [2] addresses T2, panel of ninety-seven kinases (Homo sapiens, UniProt P08069).
T2 construct: purchased DiscoverX; host or cells: T7 phage in E. coli (BL21-derived) for most kinases; HEK-293 for the rest
As to conditions: IGF1R; read-out: % Ctrl @ 3 μM. As for the experimental part:
as §1

The target in test [3] is T3, panel of ninety-seven kinases (Homo sapiens, UniProt P21802).
T3 construct: purchased DiscoverX; host or cells: T7 phage in E. coli (BL21-derived) for most kinases; HEK-293 for the rest
As to conditions: FGFR2; read-out: % Ctrl @ 3 μM. As for the experimental part: as §1

The target of test [4] is T4, panel of ninety-seven kinases (Homo sapiens, UniProt P22607).
T4 construct: purchased DiscoverX; host or cells: T7 phage in E. coli (BL21-derived) for most kinases; HEK-293 for the rest
Particulars: FGFR3; read-out: % Ctrl @ 3 μM. As for the experimental part: as §1

Test [5] deals with T5, panel of ninety-seven kinases (Homo sapiens, UniProt P29597).
T5 construct: purchased DiscoverX; host or cells: T7 phage in E. coli (BL21-derived) for most kinases; HEK-293 for the rest
As to conditions: TYK2; read-out: % Ctrl @ 3 μM. As for the experimental part: as §1

Test [6] has as its target T6, panel of ninety-seven kinases (Homo sapiens, UniProt P36507).
T6 construct: purchased DiscoverX; host or cells: T7 phage in E. coli (BL21-derived) for most kinases; HEK-293 for the rest
Particulars: MAP2K2; read-out: % Ctrl @ 3 μM. As for the experimental part:
as §1

Test [7] has as its target T7, panel of ninety-seven kinases (Homo sapiens, UniProt P45983).
T7 construct: purchased DiscoverX; host or cells: T7 phage in E. coli (BL21-derived) for most kinases; HEK-293 for the rest
As to conditions: MAPK8; read-out: % Ctrl @ 3 μM. As for the experimental part: as §1

Test [8] has as its target T8, panel of ninety-seven kinases (Homo sapiens, UniProt P45984).
T8 construct: purchased DiscoverX; host or cells: T7 phage in E. coli (BL21-derived) for most kinases; HEK-293 for the rest
Particulars: MAPK9; read-out: % Ctrl @ 3 μM. As for the experimental part: as §1

The target of test [9] is T9, panel of ninety-seven kinases (Homo sapiens, UniProt P48736).
T9 construct: purchased DiscoverX; host or cells: T7 phage in E. coli (BL21-derived) for most kinases; HEK-293 for the rest
As to conditions: PIK3CG; read-out: % Ctrl @ 3 μM. As for the experimental part: as §1

Test [10] concerns the target T10, panel of ninety-seven kinases (Homo sapiens, UniProt P78368).
T10 construct: purchased DiscoverX; host or cells: T7 phage in E. coli (BL21-derived) for most kinases; HEK-293 for the rest
Particulars: CSNK1G2; read-out: % Ctrl @ 3 μM. As for the experimental part: as §1

Test [11] has as its target T11, panel of ninety-seven kinases (Homo sapiens, UniProt Q00526).
T11 construct: purchased DiscoverX; host or cells: T7 phage in E. coli (BL21-derived) for most kinases; HEK-293 for the rest
As to conditions: CDK3; read-out: % Ctrl @ 3 μM. As for the experimental part: as §1

The target in test [12] is T12, panel of ninety-seven kinases (Homo sapiens, UniProt Q00536).
T12 construct: purchased DiscoverX; host or cells: T7 phage in E. coli (BL21-derived) for most kinases; HEK-293 for the rest
Particulars: CDK16; read-out: % Ctrl @ 3 μM. As for the experimental part: as §1

Test [13] addresses T13, panel of ninety-seven kinases (Homo sapiens, UniProt Q05397).
T13 construct: purchased DiscoverX; host or cells: T7 phage in E. coli (BL21-derived) for most kinases; HEK-293 for the rest
Particulars: PTK2; read-out: % Ctrl @ 3 μM. As for the experimental part: as §1

Test [14] addresses T14, panel of ninety-seven kinases (Homo sapiens, UniProt Q13177).
T14 construct: purchased DiscoverX; host or cells: T7 phage in E. coli (BL21-derived) for most kinases; HEK-293 for the rest
Particulars: PAK2; read-out: % Ctrl @ 3 μM. As for the experimental part:
as §1

Test [15] deals with T15, panel of ninety-seven kinases (Homo sapiens, UniProt Q16539).
T15 construct: purchased DiscoverX; host or cells: T7 phage in E. coli (BL21-derived) for most kinases; HEK-293 for the rest
Particulars: MAPK14; read-out: % Ctrl @ 3 μM. As for the experimental part: as §1

In test [16] the target is T16, panel of ninety-seven kinases (Homo sapiens, UniProt Q8NI60).
T16 construct: purchased DiscoverX; host or cells: T7 phage in E. coli (BL21-derived) for most kinases; HEK-293 for the rest
As to conditions: CABC1; read-out: % Ctrl @ 3 μM. As for the experimental part: as §1

The target in test [17] is T17, panel of ninety-seven kinases (Homo sapiens, UniProt Q9BUB5).
T17 construct: purchased DiscoverX; host or cells: T7 phage in E. coli (BL21-derived) for most kinases; HEK-293 for the rest
As to conditions: MKNK1; read-out: % Ctrl @ 3 μM. As for the experimental part: as §1

Test [18] addresses T18, panel of ninety-seven kinases (Homo sapiens, UniProt Q9BWU1).
T18 construct: purchased DiscoverX; host or cells: T7 phage in E. coli (BL21-derived) for most kinases; HEK-293 for the rest
Particulars: CDK19; read-out: % Ctrl @ 3 μM. As for the experimental part: as §1

Test [19] deals with T19, panel of ninety-seven kinases (Homo sapiens, UniProt Q9H4B4).
T19 construct: purchased DiscoverX; host or cells: T7 phage in E. coli (BL21-derived) for most kinases; HEK-293 for the rest
T19 sequence (Q9H4B4 whole entry): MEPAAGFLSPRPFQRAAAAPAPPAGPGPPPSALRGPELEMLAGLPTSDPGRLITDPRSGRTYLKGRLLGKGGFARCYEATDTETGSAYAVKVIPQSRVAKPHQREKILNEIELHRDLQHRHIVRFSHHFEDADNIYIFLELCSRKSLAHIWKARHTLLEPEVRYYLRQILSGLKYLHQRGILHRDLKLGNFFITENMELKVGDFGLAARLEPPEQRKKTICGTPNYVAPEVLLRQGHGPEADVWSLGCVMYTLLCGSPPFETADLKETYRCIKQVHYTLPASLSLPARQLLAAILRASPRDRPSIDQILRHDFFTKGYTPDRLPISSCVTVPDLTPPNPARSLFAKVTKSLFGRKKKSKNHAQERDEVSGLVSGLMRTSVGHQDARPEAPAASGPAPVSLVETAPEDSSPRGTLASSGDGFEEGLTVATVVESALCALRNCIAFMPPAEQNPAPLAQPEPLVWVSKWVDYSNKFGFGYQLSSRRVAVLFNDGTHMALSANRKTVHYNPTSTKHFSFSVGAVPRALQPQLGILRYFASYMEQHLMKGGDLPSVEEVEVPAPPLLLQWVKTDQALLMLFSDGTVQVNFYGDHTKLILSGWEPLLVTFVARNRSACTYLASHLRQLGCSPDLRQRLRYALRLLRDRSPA
As to conditions: PLK3; read-out: % Ctrl @ 3 μM. As for the experimental part: as §1

Test [20] deals with T20, panel of ninety-seven kinases (Homo sapiens, UniProt Q9UM73).
T20 construct: purchased DiscoverX; host or cells: T7 phage in E. coli (BL21-derived) for most kinases; HEK-293 for the rest
T20 sequence (Q9UM73 19-1620): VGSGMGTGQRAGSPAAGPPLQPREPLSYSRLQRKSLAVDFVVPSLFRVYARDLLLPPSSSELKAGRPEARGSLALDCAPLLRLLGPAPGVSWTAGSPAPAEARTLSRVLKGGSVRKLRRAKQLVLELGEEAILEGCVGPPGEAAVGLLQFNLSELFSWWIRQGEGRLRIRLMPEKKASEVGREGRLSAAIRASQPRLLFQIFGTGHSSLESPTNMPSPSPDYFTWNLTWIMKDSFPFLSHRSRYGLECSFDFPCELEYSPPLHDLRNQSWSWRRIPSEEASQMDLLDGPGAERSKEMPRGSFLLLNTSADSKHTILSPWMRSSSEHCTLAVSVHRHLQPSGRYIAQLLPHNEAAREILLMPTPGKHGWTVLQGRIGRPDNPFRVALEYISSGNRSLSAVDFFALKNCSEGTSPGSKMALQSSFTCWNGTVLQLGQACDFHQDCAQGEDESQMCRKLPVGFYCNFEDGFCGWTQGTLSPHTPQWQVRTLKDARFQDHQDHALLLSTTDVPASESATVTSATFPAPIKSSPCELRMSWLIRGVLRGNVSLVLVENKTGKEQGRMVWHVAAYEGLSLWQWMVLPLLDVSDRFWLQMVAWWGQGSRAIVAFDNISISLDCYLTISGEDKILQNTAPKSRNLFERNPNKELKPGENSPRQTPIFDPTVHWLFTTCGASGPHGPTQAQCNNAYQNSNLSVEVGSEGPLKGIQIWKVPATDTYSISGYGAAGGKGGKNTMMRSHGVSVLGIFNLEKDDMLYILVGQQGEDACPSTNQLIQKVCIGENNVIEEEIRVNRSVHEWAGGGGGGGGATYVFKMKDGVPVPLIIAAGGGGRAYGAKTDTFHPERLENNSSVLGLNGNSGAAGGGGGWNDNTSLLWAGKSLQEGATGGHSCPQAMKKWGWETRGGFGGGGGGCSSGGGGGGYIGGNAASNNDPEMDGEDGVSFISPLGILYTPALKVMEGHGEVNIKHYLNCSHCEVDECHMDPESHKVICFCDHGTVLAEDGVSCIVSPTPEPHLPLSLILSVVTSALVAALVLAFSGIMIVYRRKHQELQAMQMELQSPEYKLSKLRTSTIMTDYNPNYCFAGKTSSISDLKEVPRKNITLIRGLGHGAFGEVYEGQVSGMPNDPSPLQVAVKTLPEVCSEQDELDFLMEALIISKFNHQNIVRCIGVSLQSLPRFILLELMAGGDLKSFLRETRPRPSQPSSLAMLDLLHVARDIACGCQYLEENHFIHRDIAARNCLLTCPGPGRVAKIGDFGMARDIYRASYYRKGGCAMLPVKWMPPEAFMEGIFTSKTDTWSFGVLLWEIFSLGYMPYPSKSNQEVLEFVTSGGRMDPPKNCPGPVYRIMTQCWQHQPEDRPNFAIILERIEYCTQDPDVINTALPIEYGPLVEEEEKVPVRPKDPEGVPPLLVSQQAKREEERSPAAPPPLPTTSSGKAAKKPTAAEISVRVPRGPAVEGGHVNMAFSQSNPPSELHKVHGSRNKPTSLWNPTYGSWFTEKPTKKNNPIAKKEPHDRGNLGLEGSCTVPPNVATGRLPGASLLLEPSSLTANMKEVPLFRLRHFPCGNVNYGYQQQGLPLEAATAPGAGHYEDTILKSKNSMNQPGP
Particulars: ALK; read-out: % Ctrl @ 3 μM. As for the experimental part: as §1

Test [21] has as its target T21, panel of ninety-seven kinases (Homo sapiens, UniProt Q9Y463).
T21 construct: purchased DiscoverX; host or cells: T7 phage in E. coli (BL21-derived) for most kinases; HEK-293 for the rest
As to conditions: DYRK1B; read-out: % Ctrl @ 3 μM. As for the experimental part:
as §1

T2 sequence (P08069 31-1367): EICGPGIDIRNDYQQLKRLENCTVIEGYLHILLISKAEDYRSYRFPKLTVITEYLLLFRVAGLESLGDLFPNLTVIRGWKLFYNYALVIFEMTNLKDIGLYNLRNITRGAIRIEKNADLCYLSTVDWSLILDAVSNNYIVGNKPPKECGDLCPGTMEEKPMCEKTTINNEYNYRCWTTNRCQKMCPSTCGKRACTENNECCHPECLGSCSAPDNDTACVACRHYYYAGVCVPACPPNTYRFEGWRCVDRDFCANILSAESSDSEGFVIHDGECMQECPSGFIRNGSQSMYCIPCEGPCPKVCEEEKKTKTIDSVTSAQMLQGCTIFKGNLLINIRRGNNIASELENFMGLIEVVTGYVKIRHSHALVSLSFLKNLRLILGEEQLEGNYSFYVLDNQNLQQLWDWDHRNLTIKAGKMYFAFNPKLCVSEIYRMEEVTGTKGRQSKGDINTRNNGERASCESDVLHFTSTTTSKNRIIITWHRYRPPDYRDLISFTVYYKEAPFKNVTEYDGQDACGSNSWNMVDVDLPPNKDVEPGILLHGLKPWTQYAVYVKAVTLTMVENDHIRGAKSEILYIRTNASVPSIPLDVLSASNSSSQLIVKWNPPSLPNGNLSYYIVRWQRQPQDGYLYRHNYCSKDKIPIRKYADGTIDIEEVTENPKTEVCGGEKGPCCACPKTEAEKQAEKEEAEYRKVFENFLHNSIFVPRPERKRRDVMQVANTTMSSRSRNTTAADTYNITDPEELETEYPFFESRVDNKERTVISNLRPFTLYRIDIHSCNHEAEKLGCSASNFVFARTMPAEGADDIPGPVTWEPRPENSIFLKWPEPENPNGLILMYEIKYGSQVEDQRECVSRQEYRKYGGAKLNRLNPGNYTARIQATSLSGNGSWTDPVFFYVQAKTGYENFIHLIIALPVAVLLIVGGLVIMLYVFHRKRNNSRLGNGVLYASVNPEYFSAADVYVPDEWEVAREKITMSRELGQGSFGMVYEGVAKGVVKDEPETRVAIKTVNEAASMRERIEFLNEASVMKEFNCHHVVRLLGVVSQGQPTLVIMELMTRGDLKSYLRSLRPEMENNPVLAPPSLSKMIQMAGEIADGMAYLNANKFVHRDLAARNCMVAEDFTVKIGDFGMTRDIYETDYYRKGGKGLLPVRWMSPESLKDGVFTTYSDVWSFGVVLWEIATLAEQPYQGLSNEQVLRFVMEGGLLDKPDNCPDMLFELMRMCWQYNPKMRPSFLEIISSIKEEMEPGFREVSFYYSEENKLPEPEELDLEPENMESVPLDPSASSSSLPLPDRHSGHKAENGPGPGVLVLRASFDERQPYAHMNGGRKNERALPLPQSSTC
T13 sequence (Q05397 whole entry): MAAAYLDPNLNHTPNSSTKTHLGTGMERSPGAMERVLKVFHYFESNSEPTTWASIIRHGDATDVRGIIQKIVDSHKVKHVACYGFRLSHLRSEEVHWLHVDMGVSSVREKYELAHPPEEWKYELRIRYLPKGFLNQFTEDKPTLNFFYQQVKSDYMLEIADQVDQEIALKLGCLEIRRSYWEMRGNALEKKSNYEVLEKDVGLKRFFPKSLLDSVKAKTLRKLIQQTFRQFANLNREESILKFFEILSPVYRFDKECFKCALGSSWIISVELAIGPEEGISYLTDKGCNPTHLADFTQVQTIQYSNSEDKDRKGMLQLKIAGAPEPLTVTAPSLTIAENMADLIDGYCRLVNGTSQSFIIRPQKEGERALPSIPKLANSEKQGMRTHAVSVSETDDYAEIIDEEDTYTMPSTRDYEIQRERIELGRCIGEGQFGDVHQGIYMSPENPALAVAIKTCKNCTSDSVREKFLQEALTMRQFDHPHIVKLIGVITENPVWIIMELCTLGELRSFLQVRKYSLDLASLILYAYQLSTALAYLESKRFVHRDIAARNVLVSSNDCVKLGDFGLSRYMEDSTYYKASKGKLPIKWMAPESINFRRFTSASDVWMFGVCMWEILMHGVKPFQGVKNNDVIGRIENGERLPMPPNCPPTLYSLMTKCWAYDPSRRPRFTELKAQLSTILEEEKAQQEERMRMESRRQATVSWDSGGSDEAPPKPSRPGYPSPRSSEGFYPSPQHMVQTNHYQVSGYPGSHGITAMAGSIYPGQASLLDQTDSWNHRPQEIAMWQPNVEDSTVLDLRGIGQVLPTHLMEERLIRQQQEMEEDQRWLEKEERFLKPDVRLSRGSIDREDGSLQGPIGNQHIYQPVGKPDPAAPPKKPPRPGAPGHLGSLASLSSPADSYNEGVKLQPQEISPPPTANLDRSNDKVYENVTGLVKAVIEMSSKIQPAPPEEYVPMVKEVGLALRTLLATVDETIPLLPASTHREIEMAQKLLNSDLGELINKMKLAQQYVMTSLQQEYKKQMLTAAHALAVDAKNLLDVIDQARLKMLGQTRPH
T6 sequence (P36507 whole entry): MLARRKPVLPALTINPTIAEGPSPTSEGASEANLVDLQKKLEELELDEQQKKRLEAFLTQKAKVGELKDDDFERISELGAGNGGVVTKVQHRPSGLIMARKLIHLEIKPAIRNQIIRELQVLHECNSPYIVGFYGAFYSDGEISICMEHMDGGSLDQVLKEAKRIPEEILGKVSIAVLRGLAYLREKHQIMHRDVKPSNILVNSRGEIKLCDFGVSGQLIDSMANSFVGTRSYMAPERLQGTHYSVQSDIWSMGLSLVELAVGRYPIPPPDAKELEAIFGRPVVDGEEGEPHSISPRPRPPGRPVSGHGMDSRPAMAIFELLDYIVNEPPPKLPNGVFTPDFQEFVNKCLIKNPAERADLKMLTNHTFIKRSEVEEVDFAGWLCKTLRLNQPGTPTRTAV

Turning to `CN(C)CCNC(=O)c1ccc(-c2ccc(-c3ccc(Cl)cc3)n2-c2ccccc2C(F)(F)F)cc1` (single isomer, unassigned) [Atropisomer A-2, 4-[5-(4-chlorophenyl)-1-[2-(trifluoromethyl)phenyl]pyrrol-2-yl]-N-[2-(dimethylamino)ethyl]benzamide], the percent of control kinase binding to immobilized ligand at 3 µM came to 100% in [1]; 100% in test [2]; 85% in test [3]; 92% in test [4]; 100% in test [5]; 81% in test [6]. Moreover, the percent of control kinase binding to immobilized ligand at 3 µM in [7] came to 77%; in test [8], 80%; in [9], 100%; in test [10] it was 100%; in test [11] it was 100%; in [12] it was 100%. In addition, the percent of control kinase binding to immobilized ligand at 3 µM in test [13] is 98%; in [14], 100%; in test [15] it was 100%; in test [16] it was 63%; in [17] it was 92%; in [18], 81%. The percent of control kinase binding to immobilized ligand at 3 µM in test [19] is 87%; in [20], 89%; in [21], 97%.
